Laboratory results reported in the supplement of paper PMC6045584.
± gives the standard deviation of the averaged measurements.

Tests used:
CANERTINIB = compound: C=CC(=O)Nc1cc2c(Nc3ccc(F)c(Cl)c3)ncnc2cc1OCCCN1CCOCC1 [CANERTINIB]; experiment: surviving fraction relative to DMSO-only wells; higher = less growth inhibition; details: exposure time: 5 days
How it was run: (§1)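 Continuous five-day exposure to inhibitors at 0.5, 1, 5, 10, 50, 100, 500 and 1000 nM started 24 hours after log-phase tumour cell lines were seeded at 250–500 cells per well in 384-well plates. Luminescence was read after 10 minutes at room temperature. Viability is given as surviving fraction, meaning CellTiter-Glo luminescence normalised to the median of DMSO-only wells.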

BI-2536 = compound: CC[C@@H]1C(=O)N(C)c2cnc(Nc3ccc(C(=O)NC4CCN(C)CC4)cc3OC)nc2N1C1CCCC1 [BI-2536]; experiment: as above; details: exposure time: 5 days
How it was run: as §1

Test System | surviving fraction (CANERTINIB; 0.5 nM) | surviving fraction (CANERTINIB; 1 nM) | surviving fraction (CANERTINIB; 5 nM) | surviving fraction (CANERTINIB; 10 nM) | surviving fraction (CANERTINIB; 50 nM) | surviving fraction (CANERTINIB; 100 nM) | surviving fraction (CANERTINIB; 500 nM) | surviving fraction (CANERTINIB; 1000 nM) | surviving fraction (BI-2536; 0.5 nM) | surviving fraction (BI-2536; 1 nM) | surviving fraction (BI-2536; 5 nM) | surviving fraction (BI-2536; 10 nM) | surviving fraction (BI-2536; 50 nM) | surviving fraction (BI-2536; 100 nM) | surviving fraction (BI-2536; 500 nM) | surviving fraction (BI-2536; 1000 nM)
HCT15 LARGE INTESTINE | 0.868 ± 0.082 | 0.78 ± 0.053 | 0.775 ± 0.11 | 0.79 ± 0.064 | 0.852 ± 0.035 | 0.869 ± 0.068 | 0.843 ± 0.079 | 0.841 ± 0.076 | 1.08 ± 0.044 | 1.04 ± 0.011 | 1.07 ± 0.026 | 0.887 ± 0.032 | 0.334 ± 0.048 | 0.0687 ± 0.014 | 0.069 ± 0.004 | 0.0617 ± 0.0076
HELA CERVIX | 0.9167 ± 0.0022 | 0.8778 ± 0.0083 | 0.888 ± 0.024 | 0.865 ± 0.023 | 1.04 ± 0.084 | 0.979 ± 0.074 | 1.02 ± 0.074 | 1 ± 0.039 | 1.05 ± 0.05 | 1.048 ± 0.0063 | 0.243 ± 0.048 | 0.033 ± 0.00087 | 0.0492 ± 0.0016 | 0.0475 ± 0.0049 | 0.11 ± 0.0041 | 0.133 ± 0.013
HMT3552 BREAST | 0.832 ± 0.042 | 0.838 ± 0.058 | 0.804 ± 0.014 | 0.774 ± 0.029 | 0.828 ± 0.079 | 0.8597 ± 0.0078 | 0.696 ± 0.037 | 0.604 ± 0.015 | 0.781 | 0.352 | 0.14 | 0.192 | 0.221 | 0.205 | 0.121 | 0.11
HOS BONE | 0.955 ± 0.029 | 0.923 ± 0.011 | 0.932 ± 0.031 | 0.915 ± 0.019 | 1.01 ± 0.012 | 1.01 ± 0.026 | 0.935 ± 0.011 | 0.914 ± 0.014 | 1.02 ± 0.015 | 0.979 ± 0.008 | 0.203 ± 0.044 | 0.031 ± 0.0027 | 0.0337 ± 0.0029 | 0.023 ± 0.001 | 0.018 ± 0.001 | 0.0207 ± 0.00058
HOSMNG BONE | 0.92 ± 0.04 | 0.978 ± 0.014 | 1.003 ± 0.0067 | 1.01 ± 0.055 | 1.08 ± 0.12 | 1.11 ± 0.1 | 1.04 ± 0.025 | 1.11 ± 0.016 | 1.03 ± 0.017 | 0.955 ± 0.11 | 0.918 ± 0.055 | 0.268 ± 0.033 | 0.047 ± 0.0036 | 0.046 ± 0.013 | 0.0673 ± 0.0061 | 0.0843 ± 0.013
HS57T BREAST | 0.946 ± 0.044 | 0.899 ± 0.047 | 0.893 ± 0.11 | 0.911 ± 0.02 | 0.919 ± 0.081 | 0.908 ± 0.012 | 0.843 ± 0.047 | 0.692 ± 0.02 | 1.1 ± 0.045 | 0.986 ± 0.028 | 0.216 ± 0.016 | 0.114 ± 0.011 | 0.0903 ± 0.0047 | 0.0937 ± 0.0085 | 0.156 ± 0.025 | 0.127 ± 0.009
HS578T BREAST | 0.851 ± 0.12 | 0.857 ± 0.1 | 0.873 ± 0.066 | 0.785 ± 0.038 | 1.04 ± 0.14 | 1 ± 0.11 | 0.918 ± 0.11 | 0.738 ± 0.14 | 0.828 ± 0.093 | 0.73 ± 0.075 | 0.253 ± 0.013 | 0.196 ± 0.02 | 0.131 ± 0.015 | 0.132 ± 0.025 | 0.144 ± 0.0045 | 0.135 ± 0.012
HT1080 SOFT TISSUE | 1.02 ± 0.015 | 1.05 ± 0.03 | 0.9963 ± 0.0099 | 0.997 ± 0.0076 | 1.019 ± 0.0087 | 0.987 ± 0.031 | 0.982 ± 0.058 | 0.97 ± 0.038 | 1.05 ± 0.027 | 1.067 ± 0.01 | 0.9357 ± 0.0021 | 0.087 ± 0.0056 | 0.0513 ± 0.0051 | 0.051 ± 0.0035 | 0.077 ± 0.0046 | 0.0823 ± 0.0095
HU09 BONE | 0.807 ± 0.14 | 0.891 ± 0.066 | 0.977 ± 0.058 | 0.904 ± 0.079 | 1.02 ± 0.086 | 1.02 ± 0.081 | 0.766 ± 0.033 | 0.478 ± 0.027 | 1.03 ± 0.049 | 0.939 ± 0.14 | 0.066 ± 0.0044 | 0.0487 ± 0.0047 | 0.086 ± 0.033 | 0.076 ± 0.017 | 0.0617 ± 0.0081 | 0.0403 ± 0.0032
JURKAT HAEMATOPOIETIC AND LYMPHOID TISSUE | 1.01 ± 0.025 | 0.977 ± 0.045 | 1.02 ± 0.018 | 0.952 ± 0.041 | 0.978 ± 0.03 | 0.978 ± 0.014 | 1.01 ± 0.031 | 0.839 ± 0.043 | 1.04 ± 0.022 | 0.911 ± 0.015 | 0.028 ± 0.001 | 0.0257 ± 0.00058 | 0.0297 ± 0.00058 | 0.0217 ± 0.00058 | 0.0177 ± 0.00058 | 0.021
